Assay results published in US6924314B2, “Compounds for the treatment of metabolic disorders” (Wellstat Therapeutics Corporation, priority 2001, dated 2005).

Experiments:
[1] = system: ob/ob obese diabetic mice; experiment: Acute hypoglycemic effect in ob/ob obese diabetic mice: Experiment 1; type: in vivo; conditions: single oral dose by gavage, 6 hours
Protocol: Male ob/ob diabetic mice were randomized into groups of five animals each. Body weights were 50-55 g and blood glucose was approximately 300 mg/dL in the fed state. A single oral dose of a test substance suspended in 0.5% carboxymethylcellulose vehicle was administered by gavage. Blood glucose was measured in blood droplets obtained by nicking a tail vein with a razor using glucometer test strips and a Glucometer Elite XL device (Bayer) at 0, 0.5, 2, 4, 6 and 18 hours after the initial dosing. A 10% reduction in blood glucose versus oral vehicle is considered a positive screening result. Blood glucose reductions were generally maximal at 6 hours after drug administration.

[2] = system: ob/ob obese diabetic mice; experiment: Acute hypoglycemic effect in ob/ob obese diabetic mice: Expt 2; type: in vivo; conditions: single oral dose 250 mg/kg; for change in vivo at 250 mg/kg: Mus musculus, 6 hours, read-out: % Reduction vs Control
Protocol: Male ob/ob mice (50-55 grams; blood glucose ˜300 mg/dL) were divided into groups of five animals each, and given a single oral dose of test drug (250 mg/kg) suspended in 0.5% carboxymethylcellulose vehicle; a control group received oral vehicle alone.
Six hours after oral administration of test drugs or vehicle (control), blood samples were obtained from a tail vein and glucose content was determined with a glucometer.

ob/ob mice = experiment: Hyperglycemia, hyperlipidemia, fatty liver disease and weight gain in ob/ob obese diabetic mice, daily oral dosing; type: in vivo, C57BL/6 mice; conditions: for Free Fatty Acids ± SEM / Glucose ± SEM / Triglycerides ± SEM / ALT (U/L) ± SEM / AST (U/L) ± SEM / SDH (U/L) ± SEM: 4 weeks; for ALT (U/L) ± SEM / AST (U/L) ± SEM / SDH (U/L) ± SEM: serum
Description: Ob/ob mice have a defect in the gene for leptin, a protein involved in appetite regulation and energy metabolism, and are hyperphagic, obese, and insulin resistant. They develop hyperglycemia and fatty liver.

db/db mice [3] = experiment: Antidiabetic effects in db/db mice, four weeks of daily oral dosing; type: in vivo; conditions: for Glucose / Glucose (% of Control): 150 mg/kg daily oral, four weeks; for blood glucose: after four weeks of daily oral dosing (Compound AW, BH 150 mg/kg; pioglitazone 100 mg/kg)
Description: Db/db mice have a defect in leptin signaling, leading to hyperphagia, obesity and diabetes. Moreover, unlike ob/ob mice which have relatively robust islets, their insulin-producing pancreatic islet cells undergo failure during chronic hyperglycemia, so that they transition from hyperinsulinemia (associated with peripheral insulin resistance) to hypoinsulinemic diabetes.
Male db/db mice were given daily oral treatments with vehicle (0.75% hydroxypropylmethylcellulose) or antidiabetic compounds as indicated below. Blood samples were obtained via the retro-orbital sinus for serum chemistry analysis, or via the tail vein for glucose measurement with a test strip and glucometer.
The dose of pioglitazone used in this experiment was reported in the literature to be a maximally-effective dose for treatment of db/db mice (Shimaya et al. (2000), Metabolism 49:411-7).

[4] = system: Zucker Diabetic Fatty (ZDF) rats; experiment: Attenuation of cataractogenesis in Zucker Diabetic Fatty (ZDF) rats; type: in vivo; conditions: 100 mg/kg daily oral, 10 weeks
Description: Cataracts are one of the leading causes of progressive vision decline and blindness associated with ageing and diabetes, and the Zucker diabetic fatty (ZDF) model has many similarities with human cataractogenesis, including biochemical changes and oxidative stress in the lens. These rats, however, undergo cataractogenesis typically between 14-16 weeks of age.
Male ZDF rats and their aged-match Zucker lean (ZL) counterparts (fa/+ or +/+) were obtained from Genetic Models, Inc. (Indianapolis, Ind.) aged 12 weeks and acclimatized for 1 week prior to study. […] Treatment cohorts were given a daily oral dose of vehicle and 100 mg/kg of BI or BH for 10 weeks. […] At the end of the treatment period 100 μl of venous blood was collected (usually 10:00 A.M.) in a heparinized tube from the tail vein for serum chemistry analysis (Anilytics, Inc., Gaithersburg, Md.). […] Plasma insulin was measured by an electrochemiluminescent immunoassay, ECL (Origen Analyzer, Igen, Inc., Gaithersburg, Md.). The animals were sacrificed and tissues and/or organs (lens and liver) were extirpated, weighed (wet weight) and processed for biochemical analyses. Malondialdehyde (MDA), a major product of lipid peroxidation was assayed in lenses according to Ohkawa et al (1979), Analytical Biochem 95, 351-358).

db/db mice [5] = experiment: Antidiabetic effects in db/db mice, 2 weeks (Example J); type: in vivo, C57BL/Ksola mice
Description: db/db mice have a defect in leptin signaling, leading to hyperphagia, obesity and diabetes. Moreover, unlike ob/ob mice on a C57BL/6J background, db/db mice on a C57BL/KS background undergo failure of their insulin-producing pancreatic islet cells, resulting in progression from hyperinsulinemia (associated with peripheral insulin resistance) to hypoinsulinemic diabetes.
A minimum of 7 days was allowed for adaptation after arrival.
Treatment cohorts were given daily oral doses of Vehicle (1% hydroxypropylmethylcellulose), Compounds BI, BS, BT, BU, BV or Fenofibrate for 2 weeks. At the end of the treatment period 100 μl of venous blood was withdrawn in a heparinized capillary tube from the retro-orbital sinus of db/db mice for serum chemistry analysis.

[6] = nonfasting, 113 mg/kg daily oral
[7] = serum, daily oral, dose per Table 12: 113 mg/kg

Compound: CCOC(=O)CCC(=O)c1ccc(OCc2ccccc2F)cc1 [Compound AK, Ethyl 4-(4-(2-fluorobenzyloxyl)phenyl)-4-oxobutyrate]
- % Reduction vs Control [1]: −29.3 ± 3.4%
- Blood Glucose after 6 hours [1]: 210 ± 10 mg/dL

Compound: Cc1ccccc1COc1ccc(C(=O)CCC(=O)O)cc1 [Compound AL, 4-(4-(2-Methylbenzyloxy)phenyl)-4-oxobutyric acid]
- % Reduction vs Control [1]: −43.4 ± 4.4%
- Blood Glucose after 6 hours [1]: 168 ± 13 mg/dL

Compound: O=C(O)CCC(=O)c1cccc(OCc2c(F)cccc2F)c1 [Compound AW, 4-(3-(2,6-Difluorobenzyloxy)phenyl)-4-oxobutyric acid]
- Blood Glucose after 6 hours [2]: 143 ± 15 mg/dL
- Mean body weight gain (grams) (ob/ob mice; 3 mg/kg/day, four week treatment period): +7.3 grams
- Free Fatty Acids ± SEM (ob/ob mice; 10 mg/kg/day oral): 3697.4 ± 357.8 µmol/L
- Glucose ± SEM (ob/ob mice; 10 mg/kg/day oral): 369.6 ± 62.5 mg/dL
- Triglycerides ± SEM (ob/ob mice; 10 mg/kg/day oral): 115.6 ± 7.8 mg/dL
- Mean body weight gain (grams) (ob/ob mice; 10 mg/kg/day, four week treatment period): +6.7 grams
- Free Fatty Acids ± SEM (ob/ob mice; 30 mg/kg/day oral): 2552.2 ± 334.7 µmol/L
- Glucose ± SEM (ob/ob mice; 30 mg/kg/day oral): 280.2 ± 46.7 mg/dL
- Triglycerides ± SEM (ob/ob mice; 30 mg/kg/day oral): 96.4 ± 7.3 mg/dL
- Mean body weight gain (grams) (ob/ob mice; 30 mg/kg/day, four week treatment period): +6.4 grams
- Free Fatty Acids ± SEM (ob/ob mice; 100 mg/kg/day oral): 1476 ± 82.1 µmol/L
- Glucose ± SEM (ob/ob mice; 100 mg/kg/day oral): 286 ± 47.1 mg/dL
- Triglycerides ± SEM (ob/ob mice; 100 mg/kg/day oral): 66.2 ± 5.9 mg/dL
- Mean body weight gain (grams) (ob/ob mice; 100 mg/kg/day, four week treatment period): +3.4 grams
- Free Fatty Acids ± SEM (ob/ob mice; 150 mg/kg/day oral): 1481 ± 158.8 µmol/L
- Glucose ± SEM (ob/ob mice; 150 mg/kg/day oral): 188.6 ± 28.8 mg/dL
- Triglycerides ± SEM (ob/ob mice; 150 mg/kg/day oral): 72.6 ± 5.6 mg/dL
- Mean body weight gain (grams) (ob/ob mice; 150 mg/kg/day, four week treatment period): +4.6 grams
- Free Fatty Acids ± SEM (ob/ob mice; 300 mg/kg/day oral): 1452.6 ± 111.1 µmol/L
- Glucose ± SEM (ob/ob mice; 300 mg/kg/day oral): 128.4 ± 8.8 mg/dL
- Triglycerides ± SEM (ob/ob mice; 300 mg/kg/day oral): 63.6 ± 3.4 mg/dL
- Mean body weight gain (grams) (ob/ob mice; 300 mg/kg/day, four week treatment period): −0.7 grams
- blood glucose (ob/ob mice; daily oral doses, compared with pioglitazone and rosiglitazone): reduction in blood glucose comparable to that achieved with pioglitazone and rosiglitazone
- liver fat droplets (liver histology) (ob/ob mice; daily treatment for 4 weeks): marked reduction in liver fat droplets
- serum triglycerides and fatty acids (ob/ob mice; doses of 100 to 300 mg/kg/day, versus comparators at their optimum antihyperglycemic doses): reduced serum triglycerides and fatty acids better than did either rosiglitazone or pioglitazone
- serum liver enzymes (ALT, AST, SDH) (ob/ob mice; doses ranging from 30 mg/kg/day to 300 mg/kg/day): dose-dependent decrease in serum liver enzymes
- weight gain relative to vehicle-treated mice (ob/ob mice; four week treatment period): dose-dependent attenuation of weight gain
- ALT (U/L) ± SEM (ob/ob mice; 10 mg/kg/day oral): 483.8 ± 81.9 U/L
- AST (U/L) ± SEM (ob/ob mice; 10 mg/kg/day oral): 653.4 ± 104.8 U/L
- SDH (U/L) ± SEM (ob/ob mice; 10 mg/kg/day oral): 626.8 ± 93.8 U/L
- ALT (U/L) ± SEM (ob/ob mice; 30 mg/kg/day oral): 320.2 ± 46.2 U/L
- AST (U/L) ± SEM (ob/ob mice; 30 mg/kg/day oral): 399.6 ± 74.4 U/L
- SDH (U/L) ± SEM (ob/ob mice; 30 mg/kg/day oral): 333.0 ± 66.9 U/L
- ALT (U/L) ± SEM (ob/ob mice; 100 mg/kg/day oral): 202.8 ± 38.0 U/L
- AST (U/L) ± SEM (ob/ob mice; 100 mg/kg/day oral): 143.8 ± 30.4 U/L
- SDH (U/L) ± SEM (ob/ob mice; 100 mg/kg/day oral): 121.2 ± 14.1 U/L
- ALT (U/L) ± SEM (ob/ob mice; 150 mg/kg/day oral): 149.2 ± 15.6 U/L
- AST (U/L) ± SEM (ob/ob mice; 150 mg/kg/day oral): 185.8 ± 26.0 U/L
- SDH (U/L) ± SEM (ob/ob mice; 150 mg/kg/day oral): 166.2 ± 20.0 U/L
- ALT (U/L) ± SEM (ob/ob mice; 300 mg/kg/day oral): 188.2 ± 10.3 U/L
- AST (U/L) ± SEM (ob/ob mice; 300 mg/kg/day oral): 335.4 ± 44.8 U/L
- SDH (U/L) ± SEM (ob/ob mice; 300 mg/kg/day oral): 207.0 ± 29.3 U/L
- Glucose (db/db mice [3]): 313 ± 34 mg/dL
- Glucose (% of Control) (db/db mice [3]): 56 ± 6 % of Control
- blood glucose (db/db mice [3]): significant reduction in blood glucose

Compound: O=C(O)CCC(=O)c1ccc(OCC2CC2)cc1 [Compound AX, 4-(4-((Cyclopropyl)-methoxy)phenyl)-4-oxobutyric acid]
- change in vivo at 250 mg/kg [2]: -45.9 ± 2.4%
- Blood Glucose after 6 hours [2]: 165 ± 23 mg/dL

Compound: O=C(O)CCC(=O)c1ccc(OCc2ccccc2C(F)(F)F)cc1 [Compound AY, 4-(4-(2-Trifluoromethylbenzyloxy)phenyl)-4-oxobutyric acid]
- change in vivo at 250 mg/kg [2]: -39.3 ± 2.9%
- Blood Glucose after 6 hours [2]: 185 ± 21 mg/dL

Compound: O=C(O)CCSCc1ccc(OCc2c(F)cccc2F)cc1 [Compound AZ, 3-[(4-(2,6-Difluorobenzyloxy)phenyl)-methylthio]propionic acid]
- change in vivo at 250 mg/kg [2]: -39 ± 6.1%
- Blood Glucose after 6 hours [2]: 186 ± 10 mg/dL

Compound: O=C(O)CCC(=O)c1cccc(OCC2CC2)c1 [Compound BH, 4-(3-((Cyclopropyl)-methoxy)phenyl)-4-oxobutyric acid]
- % Protection Left Eye [4]: 33%
- % Protection Right Eye [4]: 17%
- Cataract Formation Left Eye [4]: 4/6
- Cataract Formation Right Eye [4]: 5/6
- Lenticular MDA ([4]; means ± SEM): 1.9 ± 0.2 nmol/g lens
- Size (mm) Left Lens ([4]; means ± SEM): 2.5 ± 0.3 mm
- Size (mm) Right Lens ([4]; means ± SEM): 2.1 ± 0.4 mm
- Weight (mg) Left Lens ([4]; means ± SEM): 27.0 ± 7.2 mg
- Weight (mg) Right Lens ([4]; means ± SEM): 20.0 ± 6.6 mg
- Glucose (db/db mice [3]): 229 ± 49 mg/dL
- Glucose (% of Control) (db/db mice [3]): 41 ± 9 % of Control
- blood glucose (db/db mice [3]): significant reduction in blood glucose

Compound: CC(C)OC(=O)C(C)(C)Oc1ccc(C(=O)c2ccc(Cl)cc2)cc1 [Fenofibrate, reference compound]
- Glucose (db/db mice [5]; [6]): 563.2 ± 49.0 mg/dL
- Glucose (% of Control) (db/db mice [5]; [6]): 81 ± 7 % of Control
- Free Fatty Acids ± SEM (db/db mice [5]; [7]): 3318.5 ± 208.7 µM
- Triglycerides ± SEM (db/db mice [5]; [7]): 109.3 ± 9.1 mg/dL
